# According to publication PMC9234961 (Journal of Medicinal Chemistry, 2022):
# Columns and labels:
# COX1 = COX1 (Homo sapiens, UniProt P23219); experiment: SAFETYScan Non-Kinase Enzymes Enzymatic, Inhibitor; assay type: biochemical
# Source text: (§1) Supplement jm1c02175_si_002.xlsx, sheet "SAFETYScan" | column: RC50 (uM); Max Response
# AChE = AChE (Homo sapiens, UniProt P22303); experiment: SAFETYScan Non-Kinase Enzymes Enzymatic, Inhibitor; assay type: biochemical
# Source text: as §1
# PDE4D2 = PDE4D2 (Homo sapiens, UniProt Q08499); experiment: SAFETYScan Non-Kinase Enzymes Enzymatic, Inhibitor; assay type: biochemical
# Source text: as §1
# MAOA = MAOA (Homo sapiens, UniProt P21397); experiment: SAFETYScan Non-Kinase Enzymes Enzymatic, Inhibitor; assay type: biochemical
# Source text: as §1
# COX2 = COX2 (Homo sapiens, UniProt P35354); experiment: SAFETYScan Non-Kinase Enzymes Enzymatic, Inhibitor; assay type: biochemical
# Source text: as §1
# PDE3A = PDE3A (Homo sapiens, UniProt Q14432); experiment: SAFETYScan Non-Kinase Enzymes Enzymatic, Inhibitor; assay type: biochemical
# Source text: as §1
# NAV1.5 = NAV1.5 (Homo sapiens, UniProt Q14524); experiment: SAFETYScan Ion Channel, Blocker; assay type: cell-based
# Source text: as §1
# GABAA = GABAA (Homo sapiens, UniProt P14867+P18507+P47870); experiment: SAFETYScan Ion Channel, Blocker; assay type: cell-based; conditions: read-out: Max Response
# Source text: as §1
# HTR3A = molecular target: T1, HTR3A (Homo sapiens, UniProt P46098); experiment: SAFETYScan Ion Channel, Blocker; assay type: cell-based
# T1 sequence (P46098 24-478): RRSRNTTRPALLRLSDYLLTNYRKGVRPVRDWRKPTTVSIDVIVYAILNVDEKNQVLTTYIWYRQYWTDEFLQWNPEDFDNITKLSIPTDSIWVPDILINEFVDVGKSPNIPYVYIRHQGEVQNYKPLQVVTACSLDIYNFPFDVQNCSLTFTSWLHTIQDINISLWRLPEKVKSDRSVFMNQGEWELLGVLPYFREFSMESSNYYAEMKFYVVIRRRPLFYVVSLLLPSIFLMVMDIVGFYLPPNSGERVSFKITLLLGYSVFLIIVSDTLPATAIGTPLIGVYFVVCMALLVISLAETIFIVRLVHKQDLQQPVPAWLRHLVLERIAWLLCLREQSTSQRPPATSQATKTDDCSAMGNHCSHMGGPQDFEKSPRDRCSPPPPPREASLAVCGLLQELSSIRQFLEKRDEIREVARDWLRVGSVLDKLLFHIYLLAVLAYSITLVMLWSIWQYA
# Source text: as §1
# ADRA1A = molecular target: T2, ADRA1A (Homo sapiens, UniProt P35348); experiment: SAFETYScan GPCR Calcium Flux, Antagonist; assay type: cell-based
# T2 sequence (P35348 1-466): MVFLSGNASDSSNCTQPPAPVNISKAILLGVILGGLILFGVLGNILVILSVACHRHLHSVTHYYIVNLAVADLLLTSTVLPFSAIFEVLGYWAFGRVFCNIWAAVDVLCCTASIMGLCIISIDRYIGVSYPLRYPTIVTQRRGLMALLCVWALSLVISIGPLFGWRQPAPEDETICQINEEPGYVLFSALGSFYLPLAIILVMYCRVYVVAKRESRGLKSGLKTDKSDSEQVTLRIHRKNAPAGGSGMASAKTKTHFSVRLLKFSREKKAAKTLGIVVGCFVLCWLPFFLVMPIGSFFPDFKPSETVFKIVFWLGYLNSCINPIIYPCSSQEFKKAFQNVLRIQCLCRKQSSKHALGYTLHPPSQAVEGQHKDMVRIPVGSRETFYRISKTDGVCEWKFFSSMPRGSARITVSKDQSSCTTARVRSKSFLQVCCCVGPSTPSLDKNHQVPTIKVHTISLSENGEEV
# Source text: as §1
# ADORA2A = ADORA2A (Homo sapiens, UniProt P29274); experiment: SAFETYScan GPCR Calcium Flux, Antagonist; assay type: cell-based
# Source text: as §1
# CCKAR = molecular target: T3, CCKAR (Homo sapiens, UniProt P32238); experiment: SAFETYScan GPCR Calcium Flux, Antagonist; assay type: cell-based
# T3 sequence (P32238 1-428): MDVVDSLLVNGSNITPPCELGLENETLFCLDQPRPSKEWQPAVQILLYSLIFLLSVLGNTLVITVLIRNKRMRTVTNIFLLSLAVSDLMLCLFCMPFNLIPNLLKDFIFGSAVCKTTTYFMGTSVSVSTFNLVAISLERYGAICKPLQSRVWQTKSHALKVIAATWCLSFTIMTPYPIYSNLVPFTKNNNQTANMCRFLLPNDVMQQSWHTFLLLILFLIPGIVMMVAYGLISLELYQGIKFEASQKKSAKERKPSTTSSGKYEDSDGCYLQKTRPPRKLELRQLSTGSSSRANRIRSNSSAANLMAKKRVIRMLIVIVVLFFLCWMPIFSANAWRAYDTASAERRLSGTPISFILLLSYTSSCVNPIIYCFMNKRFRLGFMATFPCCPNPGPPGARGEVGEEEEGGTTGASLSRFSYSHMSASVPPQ
# Source text: as §1
# [1] = Linearity PK studies in SCID mice; conditions: solution formulation
# in vitro = in vitro ADME; conditions: pH 7.4, 10 µM, 16 h at 30 °C
# HT DLBCL xenograft = experiment: Efficacy study in HT DLBCL xenograft model; assay type: in vivo, mouse
# Experimental: single treatment of vehicle.
# 7.3.3 Preparation of HT Cells […]
# subcultured 1:4 every 3-4 days. […]
# pharmacokinetic analysis (PK).
# 7.3.6 Tumour lysis and Wes method
# Lysates were incubated on
# Samples were stored at -80 °C until use.
# Data was analysed using Compass for SW software. BCL6
# PDE3A, sequence (Q14432 whole entry): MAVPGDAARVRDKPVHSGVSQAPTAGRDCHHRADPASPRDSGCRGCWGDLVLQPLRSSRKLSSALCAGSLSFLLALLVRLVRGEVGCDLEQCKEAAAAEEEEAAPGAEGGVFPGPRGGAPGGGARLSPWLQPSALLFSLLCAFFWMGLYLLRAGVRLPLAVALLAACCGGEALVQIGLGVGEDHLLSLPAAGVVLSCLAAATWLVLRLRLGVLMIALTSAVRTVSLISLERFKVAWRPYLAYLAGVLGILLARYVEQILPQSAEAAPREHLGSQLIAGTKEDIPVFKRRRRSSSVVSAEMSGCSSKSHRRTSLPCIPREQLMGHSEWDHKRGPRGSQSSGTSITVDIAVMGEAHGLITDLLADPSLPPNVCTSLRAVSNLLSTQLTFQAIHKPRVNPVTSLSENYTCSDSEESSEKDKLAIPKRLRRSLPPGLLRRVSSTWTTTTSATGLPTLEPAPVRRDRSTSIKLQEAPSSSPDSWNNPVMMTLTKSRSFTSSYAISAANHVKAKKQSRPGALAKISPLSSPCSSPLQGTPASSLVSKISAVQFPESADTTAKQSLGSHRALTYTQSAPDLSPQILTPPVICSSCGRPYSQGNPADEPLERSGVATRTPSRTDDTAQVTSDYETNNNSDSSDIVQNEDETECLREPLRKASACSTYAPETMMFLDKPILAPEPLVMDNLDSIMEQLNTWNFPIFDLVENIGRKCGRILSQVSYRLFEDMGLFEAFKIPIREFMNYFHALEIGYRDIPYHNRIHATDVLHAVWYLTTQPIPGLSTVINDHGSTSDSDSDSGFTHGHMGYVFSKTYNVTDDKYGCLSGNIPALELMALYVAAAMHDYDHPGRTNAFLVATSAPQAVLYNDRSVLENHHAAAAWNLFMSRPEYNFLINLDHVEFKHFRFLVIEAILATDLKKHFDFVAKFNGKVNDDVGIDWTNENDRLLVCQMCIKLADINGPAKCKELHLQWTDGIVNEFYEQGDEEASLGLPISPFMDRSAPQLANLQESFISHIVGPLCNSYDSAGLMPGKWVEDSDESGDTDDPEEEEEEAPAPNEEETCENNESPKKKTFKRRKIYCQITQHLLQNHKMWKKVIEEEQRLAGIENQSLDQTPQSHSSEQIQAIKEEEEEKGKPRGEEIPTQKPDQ
# NAV1.5, sequence (Q14524 whole entry): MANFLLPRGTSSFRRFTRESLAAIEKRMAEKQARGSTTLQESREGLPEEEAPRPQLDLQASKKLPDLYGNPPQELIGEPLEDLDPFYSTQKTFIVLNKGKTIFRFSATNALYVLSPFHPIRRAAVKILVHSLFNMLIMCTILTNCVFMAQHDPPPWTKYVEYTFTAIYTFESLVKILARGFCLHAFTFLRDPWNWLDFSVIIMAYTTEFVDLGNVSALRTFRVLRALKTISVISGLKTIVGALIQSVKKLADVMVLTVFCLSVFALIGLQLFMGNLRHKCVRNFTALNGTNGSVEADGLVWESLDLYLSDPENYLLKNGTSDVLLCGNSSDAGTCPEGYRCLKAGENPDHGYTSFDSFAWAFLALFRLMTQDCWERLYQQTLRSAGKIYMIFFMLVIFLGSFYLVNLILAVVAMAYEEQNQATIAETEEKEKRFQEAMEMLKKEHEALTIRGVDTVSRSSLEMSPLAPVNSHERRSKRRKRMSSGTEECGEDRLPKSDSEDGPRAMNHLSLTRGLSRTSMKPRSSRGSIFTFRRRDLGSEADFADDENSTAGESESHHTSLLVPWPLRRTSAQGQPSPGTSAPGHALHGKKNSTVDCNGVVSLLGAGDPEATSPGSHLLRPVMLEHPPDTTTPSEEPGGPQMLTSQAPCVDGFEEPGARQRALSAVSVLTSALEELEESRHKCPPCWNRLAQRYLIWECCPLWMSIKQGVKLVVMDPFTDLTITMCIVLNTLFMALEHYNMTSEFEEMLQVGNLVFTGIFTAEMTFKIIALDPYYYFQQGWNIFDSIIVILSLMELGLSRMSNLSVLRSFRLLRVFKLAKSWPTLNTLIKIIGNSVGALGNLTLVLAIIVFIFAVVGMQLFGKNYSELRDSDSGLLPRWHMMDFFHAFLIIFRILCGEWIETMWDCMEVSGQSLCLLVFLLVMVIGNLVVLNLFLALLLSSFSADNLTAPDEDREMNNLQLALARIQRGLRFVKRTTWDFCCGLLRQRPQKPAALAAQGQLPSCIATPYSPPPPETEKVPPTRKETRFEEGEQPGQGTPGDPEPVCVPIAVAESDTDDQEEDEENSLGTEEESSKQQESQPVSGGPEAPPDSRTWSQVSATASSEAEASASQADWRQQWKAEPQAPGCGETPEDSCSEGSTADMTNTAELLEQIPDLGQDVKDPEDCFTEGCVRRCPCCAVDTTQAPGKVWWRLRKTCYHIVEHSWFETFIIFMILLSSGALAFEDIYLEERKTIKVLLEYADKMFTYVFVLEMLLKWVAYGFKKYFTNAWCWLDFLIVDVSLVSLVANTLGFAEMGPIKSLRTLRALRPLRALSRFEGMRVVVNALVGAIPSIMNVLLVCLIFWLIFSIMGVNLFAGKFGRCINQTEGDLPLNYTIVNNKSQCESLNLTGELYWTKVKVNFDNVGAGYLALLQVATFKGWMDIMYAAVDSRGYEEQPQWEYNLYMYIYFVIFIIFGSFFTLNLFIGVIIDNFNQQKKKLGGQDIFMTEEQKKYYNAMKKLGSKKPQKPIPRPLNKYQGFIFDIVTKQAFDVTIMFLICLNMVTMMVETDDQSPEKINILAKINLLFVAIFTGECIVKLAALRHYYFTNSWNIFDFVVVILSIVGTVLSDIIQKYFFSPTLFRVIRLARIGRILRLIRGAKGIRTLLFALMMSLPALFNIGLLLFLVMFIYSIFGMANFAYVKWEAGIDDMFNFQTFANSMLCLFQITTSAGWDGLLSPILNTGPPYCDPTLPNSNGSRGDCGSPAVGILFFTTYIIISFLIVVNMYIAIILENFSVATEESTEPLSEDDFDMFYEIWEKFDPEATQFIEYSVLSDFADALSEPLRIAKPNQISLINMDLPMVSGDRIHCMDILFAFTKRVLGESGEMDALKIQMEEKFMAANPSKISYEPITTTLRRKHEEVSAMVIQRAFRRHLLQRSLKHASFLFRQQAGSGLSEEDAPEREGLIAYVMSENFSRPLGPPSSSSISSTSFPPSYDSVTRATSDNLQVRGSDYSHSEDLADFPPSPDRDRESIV
# PDE4D2, sequence (Q08499 303-809 limits assumed): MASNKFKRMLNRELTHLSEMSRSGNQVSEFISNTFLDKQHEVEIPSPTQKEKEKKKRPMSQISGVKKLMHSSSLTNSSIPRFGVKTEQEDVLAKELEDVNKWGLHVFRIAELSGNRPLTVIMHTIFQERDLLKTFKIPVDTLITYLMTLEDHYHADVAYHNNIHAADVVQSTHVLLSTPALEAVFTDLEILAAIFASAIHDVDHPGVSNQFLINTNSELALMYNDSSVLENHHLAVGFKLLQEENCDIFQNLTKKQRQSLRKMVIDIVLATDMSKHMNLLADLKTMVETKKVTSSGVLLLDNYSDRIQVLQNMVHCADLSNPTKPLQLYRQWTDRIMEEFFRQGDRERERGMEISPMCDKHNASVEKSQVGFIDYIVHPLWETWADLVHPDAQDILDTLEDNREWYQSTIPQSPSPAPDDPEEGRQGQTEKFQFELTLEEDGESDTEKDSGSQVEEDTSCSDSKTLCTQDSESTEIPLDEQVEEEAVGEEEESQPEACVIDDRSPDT
# AChE, sequence (P22303 32-614): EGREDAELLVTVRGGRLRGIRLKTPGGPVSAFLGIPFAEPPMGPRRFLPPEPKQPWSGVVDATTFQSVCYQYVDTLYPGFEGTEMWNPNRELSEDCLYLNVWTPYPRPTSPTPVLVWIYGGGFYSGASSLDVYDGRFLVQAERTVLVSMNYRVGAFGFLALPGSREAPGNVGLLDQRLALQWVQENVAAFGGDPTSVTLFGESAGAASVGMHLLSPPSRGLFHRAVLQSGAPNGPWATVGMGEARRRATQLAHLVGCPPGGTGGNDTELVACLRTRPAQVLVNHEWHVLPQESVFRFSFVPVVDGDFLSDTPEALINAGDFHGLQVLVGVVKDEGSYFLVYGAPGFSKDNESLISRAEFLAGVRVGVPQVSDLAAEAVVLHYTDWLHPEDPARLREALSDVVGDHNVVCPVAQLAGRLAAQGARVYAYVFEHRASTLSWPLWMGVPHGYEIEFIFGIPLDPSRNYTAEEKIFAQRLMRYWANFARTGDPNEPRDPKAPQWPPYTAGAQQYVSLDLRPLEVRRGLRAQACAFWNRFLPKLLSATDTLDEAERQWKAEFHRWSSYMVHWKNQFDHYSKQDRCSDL
# MAOA, sequence (P21397 whole entry): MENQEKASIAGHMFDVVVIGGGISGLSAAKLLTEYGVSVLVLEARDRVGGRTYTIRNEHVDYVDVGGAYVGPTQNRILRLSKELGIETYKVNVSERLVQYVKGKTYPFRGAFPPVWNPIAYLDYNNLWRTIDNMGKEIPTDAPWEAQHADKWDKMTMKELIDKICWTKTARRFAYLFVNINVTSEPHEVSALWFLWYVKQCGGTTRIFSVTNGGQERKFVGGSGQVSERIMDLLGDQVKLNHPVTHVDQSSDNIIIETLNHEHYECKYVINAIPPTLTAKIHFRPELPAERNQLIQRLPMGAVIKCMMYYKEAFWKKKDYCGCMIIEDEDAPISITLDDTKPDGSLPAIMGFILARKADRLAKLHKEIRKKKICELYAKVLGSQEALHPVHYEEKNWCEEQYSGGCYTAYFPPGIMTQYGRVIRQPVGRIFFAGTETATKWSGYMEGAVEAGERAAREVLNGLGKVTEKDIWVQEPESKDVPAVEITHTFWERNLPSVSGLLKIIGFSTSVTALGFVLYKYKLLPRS
compound,measurement,setting,value
"C[C@H]1C[C@@H](O)CN(c2ncc(Cl)c(Nc3ccc4c(c3)c3c(c(=O)n4C)OCC(F)(F)[C@H](C4CC4)N3)n2)C1 [12a CCT373566, (S)-10-((5-Chloro-2-((3R,5S)-3-hydroxy-5-methylpiperidin-1-yl)pyrimidin-4-yl)amino)-2-cyclopropyl-3,3-difluoro-7-methyl-1,2,3,4-tetrahydro-[1,4]oxazepino[2,3-c]quinolin-6(7H)-one]",Emax,COX1; read-out: Max Response,33%
same,IC50,COX1; read-out: RC50 (IC50),> 10 µM
same,Emax,AChE; read-out: Max Response,3.36%
same,IC50,AChE; read-out: RC50 (IC50),> 10 µM
same,Emax,PDE4D2; read-out: Max Response,10.8%
same,IC50,PDE4D2; read-out: RC50 (IC50),> 10 µM
same,Emax,MAOA; read-out: Max Response,0%
same,IC50,MAOA; read-out: RC50 (IC50),> 10 µM
same,Emax,COX2; read-out: Max Response,0%
same,IC50,COX2; read-out: RC50 (IC50),> 10 µM
same,Emax,PDE3A; read-out: Max Response,0.2%
same,IC50,PDE3A; read-out: RC50 (IC50),> 10 µM
same,Emax,NAV1.5; read-out: Max Response,1.35%
same,IC50,NAV1.5; read-out: RC50 (IC50),> 10 µM
same,Emax,GABAA,1.51%
same,Emax,HTR3A; read-out: Max Response,15%
same,IC50,HTR3A; read-out: RC50 (IC50),> 10 µM
same,Emax,ADRA1A; read-out: Max Response,0%
same,IC50,ADRA1A; read-out: RC50 (IC50),> 10 µM
same,Emax,ADORA2A; read-out: Max Response,4.91%
same,IC50,ADORA2A; read-out: RC50 (IC50),> 10 µM
same,Emax,CCKAR; read-out: Max Response,0%
same,IC50,CCKAR; read-out: RC50 (IC50),> 10 µM
same,exposure versus dose,[1],exposure increased with the dose
same,PAMPA (pH 7.4),in vitro,24 ×10–6 cm s–1
same,T/C,"HT DLBCL xenograft; 50 mg/kg BID, 22 days",60%
same,BCL6 levels after the last dose,"HT DLBCL xenograft; 50 mg/kg po bid for 22 days, 4 h and 12 h after last dose",remained decreased 4 h and 12 h after the last dose
same,body weight,"HT DLBCL xenograft; 50 mg/kg po bid, 22 days",No body weight losses were observed
same,tumor growth compared to the vehicle control group,"HT DLBCL xenograft; 50 mg/kg po bid, 22 days",modest decrease in tumor growth
